# “And” between values parts separate entries of the source, which are not always exact repeats. Identical values can stand only once.
# Legend:
# [1] = system: male NMR.tau. mice; experiment: Onset of effect (beginning of the excitation stage); type: in vivo, mouse
# Experimental: (§1) As a criterium for the onset of the effect, the beginning of the excitation stage was measured. For the optimum effect, the beginning of the sleep phase was tested every 10 minutes by the tail and corneal reflex (according to Irvin) according to the following designations:
# (§2) Sleeping Time, Onset of Effect and Optium Effect under the influence of […]
# [2] = system: tail and corneal reflex; experiment: Optimum effect (tail and corneal reflex according to Irvin); type: in vivo, mouse; set-up: key to Optimum Reflex: 0: normal reaction; -1: slightly lessened; -2: clearly lessened; -3: highly lessened; -4: complete lack of reaction
# Experimental: as §1
# -4 = complete lack of reaction
# as §2
# [3] = system: male NMR.tau. mice; experiment: Sleep duration, prolongation of sleeping time and ED50 under the influence of cinnarizine (Table 3); type: in vivo, mouse
# Text: (§3) A typical representative from the group of barbiturates with long action (phenobarbital), with short to average action (cyclobarbital-calcium) as well as ultra short action (hexobarbital) as well as a combination of two barbiturates (cyclobarbital-calcium+hexobarbital) was applied orally in graduated doses.
# [4] = system: male NMRJ mice; experiment: Sleeping time prolongation under the influence of cinnarizine and flunarizine (ED50); type: in vivo, mouse; details: for Effect on the action of barbiturates: in words; for ED50: sleeping time increased by 50%
# Text: as §3
# Determination of the sleeping time prolongation under the influence of […]
# [5] = system: male NMRJ mice; experiment: Determination of the oral ED50 of the barbiturates (sleep time); type: in vivo, mouse; details: for ED50: Mus musculus, 0.5 h, oral, dose required for a 30-minute sleeping period
# Text: as §3
# Determination of the oral ED50 of
# the barbiturates using 10 male NMR.tau. mice/group
# [6] = literature, in words; cited from earlier work
# [7] = in words; cited from earlier work
# [8] = literature, in words; cited from earlier work; remark: listed apart in the source
# [9] = cinnarizine 0.50 + hexobarbital 710 mg/kg
# [10] = cinnarizine 0.75 + hexobarbital 710 mg/kg
# [11] = cinnarizine 1.0 + cyclobarbital calcium 239 mg/kg
# [12] = cinnarizine 1.0 + cyclobarbital calcium + hexobarbital (40 + 30) 225 mg/kg
# [13] = cinnarizine 1.00 + hexobarbital 710 mg/kg
# [14] = cinnarizine 2.5 + cyclobarbital calcium 239 mg/kg
# [15] = cinnarizine 2.5 + cyclobarbital calcium + hexobarbital (40 + 30) 225 mg/kg
# [16] = cinnarizine 5.0 + cyclobarbital calcium 239 mg/kg
# [17] = cinnarizine 5.0 + cyclobarbital calcium + hexobarbital (40 + 30) 225 mg/kg
# [18] = cyclobarbital calcium 239 mg/kg alone (C)
# [19] = hexobarbital 710 mg/kg alone (C)
compound,measurement,setting,value
"C(=C\c1ccccc1)/CN1CCN(C(c2ccccc2)c2ccccc2)CC1 [Cinnarizine, 1-benzhydryl-4-trans-cinnamylpiperazine]",Onset p.a. % of control,[1]; [9],86.2%
same,Onset x,[1]; [9],2.49 min
same,Onset p.a. % of control,[1]; [10],76.8%
same,Onset x,[1]; [10],2.22 min
same,Onset p.a. % of control,[1]; [11],51.3%
same,Onset x,[1]; [11],2.19 min
same,Onset p.a. % of control,[1]; [12],94.8%
same,Onset x,[1]; [12],1.09 min
same,Onset p.a. % of control,[1]; [13],55.0%
same,Onset x,[1]; [13],1.59 min
same,Onset p.a. % of control,[1]; [14],54.1%
same,Onset x,[1]; [14],2.31 min
same,Onset p.a. % of control,[1]; [15],102.6%
same,Onset x,[1]; [15],1.18 min
same,Onset p.a. % of control,[1]; [16],59.5%
same,Onset x,[1]; [16],2.54 min
same,Onset p.a. % of control,[1]; [17],102.6%
same,Onset x,[1]; [17],1.18 min
same,Optimum % of control,[2]; [9],278.2-336.0%
same,Optimum Min.,[2]; [9],10 to 30 min
same,Optimum Reflex,[2]; [9],-3
same,Optimum Min.,[2]; [10],10 to 20 min
same,Optimum Reflex,[2]; [10],-3
same,Optimum % of control,[2]; [11],166.7%
same,Optimum Min.,[2]; [11],10 min
same,Optimum Reflex,[2]; [11],-1
same,Optimum % of control,[2]; [12],156.3-183.3%
same,Optimum Min.,[2]; [12],10 to 20 min
same,Optimum Reflex,[2]; [12],-2
same,Optimum % of control,[2]; [13],300.8-407.0%
same,Optimum Min.,[2]; [13],10 to 30 min
same,Optimum Reflex,[2]; [13],-4
same,Optimum % of control,[2]; [14],350.0%
same,Optimum Min.,[2]; [14],10 to 30 min
same,Optimum Reflex,[2]; [14],-1
same,Optimum % of control,[2]; [15],138.8-177.5%
same,Optimum Min.,[2]; [15],10 to 20 min
same,Optimum Reflex,[2]; [15],-2
same,Optimum % of control,[2]; [16],350.0%
same,Optimum Min.,[2]; [16],10 min
same,Optimum Reflex,[2]; [16],-2
same,Optimum % of control,[2]; [17],175.0-233.0%
same,Optimum Min.,[2]; [17],10 to 40 min
same,Sleep Time,[3]; [9],40.66 min
same,Sleep Time % of control,[3]; [9],113.4%
same,Sleep Time,[3]; [10],42.38 min
same,Sleep Time % of control,[3]; [10],118.2%
same,Sleep Time,[3]; [11],26.21 min
same,Sleep Time % of control,[3]; [11],106.4%
same,Sleep Time,[3]; [12],32.42 min
same,Sleep Time % of control,[3]; [12],92.6%
same,Sleep Time,[3]; [13],76.14 min
same,Sleep Time % of control,[3]; [13],212.3%
same,Sleep Time,[3]; [14],31.08 min
same,Sleep Time % of control,[3]; [14],126.1%
same,Sleep Time,[3]; [15],38.65 min
same,Sleep Time % of control,[3]; [15],110.4%
same,Sleep Time,[3]; [16],42.49 min
same,Sleep Time % of control,[3]; [16],172.4%
same,Sleep Time,[3]; [17],54.82 min
same,Sleep Time % of control,[3]; [17],156.6%
same,Sleep Time,[4]; cinnarizine 0.5 mg/kg + hexobarbital 710 mg/kg,35.37 min
same,Sleep Time,[4]; cinnarizine 1.0 mg/kg + cyclobarbital-Ca 239 mg/kg,24.34 min
same,Sleep Time,[4]; cinnarizine 1.0 mg/kg + cyclobarbital-Ca + hexobarbital (40 + 30) 225 mg/kg,31.09 min
same,Sleep Time,"[4]; cinnarizine 1.0 mg/kg + hexobarbital 710 mg/kg, **p <0.01",65.58 min
same,Sleep Time,[4]; cinnarizine 1 mg/kg + phenobarbital 256 mg/kg,25.78 min
same,Sleep Time,"[4]; cinnarizine 2.5 mg/kg + cyclobarbital-Ca 239 mg/kg, *p <0.05",41.43 min
same,Sleep Time,[4]; cinnarizine 2.5 mg/kg + cyclobarbital-Ca + hexobarbital (40 + 30) 225 mg/kg,37.92 min
same,Sleep Time,"[4]; cinnarizine 5.0 mg/kg + cyclobarbital-Ca 239 mg/kg, **p <0.01",49.99 min
same,Sleep Time,"[4]; cinnarizine 5.0 mg/kg + cyclobarbital-Ca + hexobarbital (40 + 30) 225 mg/kg, *p <0.05",53.22 min
same,Sleep Time,[4]; cinnarizine 5 mg/kg + phenobarbital 256 mg/kg,32.85 min
same,Sleep Time,"[4]; cinnarizine 10 mg/kg + phenobarbital 256 mg/kg, *p <0.05",43.55 min
same,Sleep Time,"[4]; cinnarizine […] + hexobarbital 710 mg/kg, **p <0.01",43.93 min
same,Effect on the action of barbiturates,[4],potentiating or enhancing effect
CCC1(C2=CCCCC2)C(=O)NC(=O)NC1=O [Cyclobarbital-Ca],Onset p.a. % of control,[1]; [18],100.0%
same,Onset x,[1]; [18],4.27 min
same,"Effect on onset, in words","[1]; mouse, in vivo",marked effect
same,Sleep Time,[5]; 200 mg/kg oral,14.01 min
same,Sleep Time,[5]; 250 mg/kg oral,34.38 min
same,Sleep Time,[5]; 300 mg/kg oral,90 min
same,"Sleep Time, individual animals","[5]; 300 mg/kg oral, footnote 1",90 min and 60.5 min and 53.3 min
same,ED50,[5],239 mg/kg
same,Optimum % of control,[2]; [18],100.0%
same,Optimum Min.,[2]; [18],10 min
same,Sleep Time,[3]; [18],24.64 min
same,Sleep Time % of control,[3]; [18],100.0%
same,Sleep Time,"[4]; cyclobarbital-Ca 239 mg/kg alone, cinnarizine series",27.45 min
same,Sleep Time,"[4]; cyclobarbital-Ca 239 mg/kg alone, flunarizine series",32.03 min
OCC(S)CS (stereo not shown) [Dimercaprol (BAL)],Decomposition of pentobarbital,[6],checks the decomposition of pentobarbital
Fc1ccc(C(c2ccc(F)cc2)N2CCN(C/C=C/c3ccccc3)CC2)cc1 [Flunarizine],Antihistaminic properties,[7],only weak antihistaminic properties
same,Sleep Time,[4]; flunarizine 0.25 mg/kg + cyclobarbital-Ca 239 mg/kg,39.54 min
same,Sleep Time,"[4]; flunarizine 1.0 mg/kg + cyclobarbital-Ca 239 mg/kg, ***p <0.001",62.67 min
same,Sleep Time,[4]; flunarizine 1.0 mg/kg + hexobarbital 710 mg/kg,40.44 min
same,Sleep Time,"[4]; flunarizine 2.5 mg/kg + cyclobarbital-Ca 239 mg/kg, ***p <0.001",75.15 min
same,Sleep Time,[4]; flunarizine 2.5 mg/kg + cyclobarbital-Ca + hexobarbital (40 + 30) 225 mg/kg,33.45 min
same,Sleep Time,[4]; flunarizine 2.5 mg/kg + hexobarbital 710 mg/kg,45.17 min
same,Sleep Time,"[4]; flunarizine 5.0 mg/kg + hexobarbital 710 mg/kg, ***p <0.001",94.51 min
same,Sleep Time,"[4]; flunarizine 10.0 mg/kg + cyclobarbital-Ca + hexobarbital (40 + 30) 225 mg/kg, **p <0.01",56.49 min
same,Sleep Time,"[4]; flunarizine 15.0 mg/kg + cyclobarbital-Ca + hexobarbital (40 + 30) 225 mg/kg, ***p <0.001",65.12 min
same,ED50,"[4]; flunarizine with cyclobarbital-Ca 239 mg/kg, range (0.29-0.45)",0.38 mg/kg
same,ED50,"[4]; flunarizine with cyclobarbital-Ca + hexobarbital (40 + 30) 225 mg/kg, range (6.85-8.30)",7.52 mg/kg
same,ED50,"[4]; flunarizine with hexobarbital 710 mg/kg, probit analysis",2.94 mg/kg
same,Dosage to obtain an ED50 with the combination of both barbiturates,[4]; in comparison with the individual barbiturates,higher dosages
same,Effect on the action of barbiturates,[4],potentiating or enhancing effect
same,Potency for cyclobarbital-calcium,[4]; with cyclobarbital-calcium,highest potency
CN1C(=O)NC(=O)C(C)(C2=CCCCC2)C1=O (stereo not shown) [Hexobarbital],Onset p.a. % of control,[1]; [19],100.0%
same,Onset x,[1]; [19],2.89 min
same,Sleep Time,[5]; 250 mg/kg oral,3.03 min
same,Sleep Time,[5]; 500 mg/kg oral,16.52 min
same,Sleep Time,[5]; 750 mg/kg oral,32.53 min
same,Sleep Time,[5]; 1000 mg/kg oral,56.08 min
same,ED50,[5],710 mg/kg
same,Optimum % of control,[2]; [19],100.0%
same,Optimum Min.,[2]; [19],10 to 20 min
same,Optimum Reflex,[2]; [19],-1
same,Sleep Time,[3]; [19],35.86 min
same,Sleep Time % of control,[3]; [19],100.0%
same,Sleep Time,"[4]; hexobarbital 710 mg/kg alone, cinnarizine series",32.74 min
same,Sleep Time,"[4]; hexobarbital 710 mg/kg alone, flunarizine series",38.78 min
CCCC(C)(COC(N)=O)COC(N)=O [Meprobamate],Effect on barbiturates,[8],pontentiating or enhancing effect on barbiturates
CCC1(c2ccccc2)C(=O)NC(=O)NC1=O [Phenobarbital],Sleep Time,[5]; 200 mg/kg oral,4.29 min
same,Sleep Time,[5]; 250 mg/kg oral,27.52 min
same,Sleep Time,[5]; 300 mg/kg oral,49.06 min
same,Sleep Time,[5]; 400 mg/kg oral,49.28 min
same,ED50,[5],256 mg/kg
same,Sleep Time,"[4]; phenobarbital 256 mg/kg alone, cinnarizine series",22.34 min
tocopherol,Effect on barbiturates,[8],increases the effect of barbiturates

# From patent US4505914A, “Pharmaceutical for the treatment of sleep disorders” (Merckle GmbH, priority 1982, dated 1985)
